{
  "source": "patent US20100267561A1",
  "about": "“HERBICIDAL PYRIDAZINONE DERIVATIVES” (priority 2007, published 2010)",
  "type_in_all_cases": "in vivo",
  "key": {"[1]": {"tested_on": "velvetleaf (Abutilon theophrasti)", "assay": "Test B pre-/postemergence plant response", "outline": "(§1)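 Visual scoring from 0 (no effect) to 100 (complete control) against untreated controls was done 13 to 15 days after greenhouse treatment. Chemicals were formulated in a surfactant-containing non-phytotoxic solvent and applied to soil preemergence or to 1- to 4-leaf (2-18 cm) plants postemergence.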"}, "[2]": {"tested_on": "cocklebur (Xanthium strumarium)", "assay": "Test B pre-/postemergence plant response", "outline": "as §1"}, "[3]": {"tested_on": "large crabgrass (Digitaria sanguinalis)", "assay": "Test B pre-/postemergence plant response", "outline": "as §1"}, "soybean (Glycine max)": {"tested_on": "soybean (Glycine max)", "assay": "Test B pre-/postemergence plant response", "outline": "as §1"}, "[4]": {"tested_on": "bermudagrass (Cynodon dactylon)", "assay": "Test B pre-/postemergence plant response", "outline": "as §1"}, "wild oat (Avena fatua)": {"tested_on": "wild oat (Avena fatua)", "assay": "Test B pre-/postemergence plant response", "outline": "as §1"}, "[5]": {"tested_on": "catchweed bedstraw (Galium aparine)", "assay": "Test B pre-/postemergence plant response", "settings": "Preemergence, scale 0 to 100", "outline": "as §1"}, "[6]": {"tested_on": "woolly cupgrass (Eriochloa villosa)", "assay": "Test B pre-/postemergence plant response", "outline": "as §1"}, "[7]": {"tested_on": "wheat (Triticum aestivum)", "assay": "Test B pre-/postemergence plant response", "outline": "as §1"}, "[8]": {"tested_on": "downy bromegrass (Bromus tectorum)", "assay": "Test B pre-/postemergence plant response", "outline": "as §1"}, "[9]": {"tested_on": "ducksalad (Heteranthera limosa)", "assay": "Test B flooded paddy test plant response", "outline": "(§2)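 Paddy-water application to 2-leaf plants in pots held under 3 cm of flooding; response is a 0–100 visual control rating against controls after 13 to 15 days, and a dash marks a missing result.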"}, "rice (Oryza sativa)": {"tested_on": "rice (Oryza sativa)", "assay": "Test B flooded paddy test plant response", "outline": "as §2"}, "[10]": {"tested_on": "umbrella sedge (Cyperus difformis)", "assay": "Test B flooded paddy test plant response", "outline": "as §2"}, "[11]": {"tested_on": "barnyardgrass (Echinochloa crus-galli)", "assay": "Test B flooded paddy test plant response", "outline": "as §2"}, "[12]": {"settings": "Postemergence, 31 g ai/ha, scale 0 to 100, 0 no effect, 100 complete control"}, "[13]": {"settings": "Postemergence, 62 g ai/ha, scale 0 to 100"}, "[14]": {"settings": "Postemergence, 125 g ai/ha, scale 0 to 100"}, "[15]": {"settings": "Postemergence, 250 g ai/ha, scale 0 to 100"}, "[16]": {"settings": "Preemergence, 31 g ai/ha, 0 to 100 scale, 0 no effect, 100 complete control"}, "[17]": {"settings": "Preemergence, 62 g ai/ha, scale 0 to 100"}, "[18]": {"settings": "Preemergence, 125 g ai/ha, scale 0 to 100"}, "[19]": {"settings": "Preemergence, 250 g ai/ha, scale 0 to 100"}, "[20]": {"settings": "Flood (flooded paddy test), 62 g ai/ha, scale 0 to 100, 0 no effect, 100 complete control"}, "[21]": {"settings": "Flood (flooded paddy test), 125 g ai/ha, scale 0 to 100, 0 no effect, 100 complete control"}, "[22]": {"settings": "Flood (flooded paddy test), 250 g ai/ha, scale 0 to 100, 0 no effect, 100 complete control"}, "[23]": {"settings": "Flood, 31 g ai/ha, scale 0 to 100"}},
  "data": [
    {"substance": "5-[3-(4-chlorophenyl)-5-methyl-1H-pyrazol-1-yl]-1,6-dihydro-1-methyl-6-oxo-4-pyridazinyl-1-methylethyl carbonate [Compound 7]", "values": [
      {"measurement": "Plant response rating, Velvetleaf", "setting": "[1]; [12]", "value": 0},
      {"measurement": "Plant response rating, Velvetleaf", "setting": "[1]; [13]", "value": 0},
      {"measurement": "Plant response rating, Velvetleaf", "setting": "[1]; [14]", "value": 0},
      {"measurement": "Plant response rating, Velvetleaf", "setting": "[1]; [15]", "value": 0},
      {"measurement": "Plant response rating, Velvetleaf", "setting": "[1]; [16]", "value": 0},
      {"measurement": "Plant response rating, Velvetleaf", "setting": "[1]; [17]", "value": 0},
      {"measurement": "Plant response rating, Velvetleaf", "setting": "[1]; [18]", "value": 0},
      {"measurement": "Plant response rating, Velvetleaf", "setting": "[1]; [19]", "value": 0},
      {"measurement": "Plant response rating, Cocklebur", "setting": "[2]; [12]", "value": 0},
      {"measurement": "Plant response rating, Cocklebur", "setting": "[2]; [13]", "value": 0},
      {"measurement": "Plant response rating, Cocklebur", "setting": "[2]; [14]", "value": 0},
      {"measurement": "Plant response rating, Cocklebur", "setting": "[2]; [15]", "value": 0},
      {"measurement": "Plant response rating, Cocklebur", "setting": "[2]; [16]", "value": 0},
      {"measurement": "Plant response rating, Cocklebur", "setting": "[2]; [17]", "value": 0},
      {"measurement": "Plant response rating, Cocklebur", "setting": "[2]; [18]", "value": 0},
      {"measurement": "Plant response rating, Cocklebur", "setting": "[2]; [19]", "value": 0},
      {"measurement": "Plant response rating, Crabgrass, Large", "setting": "[3]; [12]", "value": 100},
      {"measurement": "Plant response rating, Crabgrass, Large", "setting": "[3]; [13]", "value": 100},
      {"measurement": "Plant response rating, Crabgrass, Large", "setting": "[3]; [14]", "value": 100},
      {"measurement": "Plant response rating, Crabgrass, Large", "setting": "[3]; [15]", "value": 100},
      {"measurement": "Plant response rating, Crabgrass, Large", "setting": "[3]; [16]", "value": 100},
      {"measurement": "Plant response rating, Crabgrass, Large", "setting": "[3]; [17]", "value": 100},
      {"measurement": "Plant response rating, Crabgrass, Large", "setting": "[3]; [18]", "value": 100},
      {"measurement": "Plant response rating, Crabgrass, Large", "setting": "[3]; [19]", "value": 100},
      {"measurement": "Plant response rating, Soybean", "setting": "soybean (Glycine max); [12]", "value": 0},
      {"measurement": "Plant response rating, Soybean", "setting": "soybean (Glycine max); [13]", "value": 0},
      {"measurement": "Plant response rating, Soybean", "setting": "soybean (Glycine max); [18]", "value": 0},
      {"measurement": "Plant response rating, Soybean", "setting": "soybean (Glycine max); [19]", "value": 0},
      {"measurement": "Bermudagrass plant response rating", "setting": "[4]; 250 g ai/ha, preemergence, 0-100 scale", "value": 100},
      {"measurement": "Plant response rating, Bermudagrass", "setting": "[4]; [12]", "value": 100},
      {"measurement": "Plant response rating, Bermudagrass", "setting": "[4]; [13]", "value": 100},
      {"measurement": "Plant response rating, Bermudagrass", "setting": "[4]; [14]", "value": 100},
      {"measurement": "Plant response rating, Bermudagrass", "setting": "[4]; [15]", "value": 100},
      {"measurement": "Plant response rating, Bermudagrass", "setting": "[4]; [16]", "value": 60},
      {"measurement": "Plant response rating, Bermudagrass", "setting": "[4]; [17]", "value": 90},
      {"measurement": "Plant response rating, Bermudagrass", "setting": "[4]; [18]", "value": 90},
      {"measurement": "Plant response rating, Oat, Wild", "setting": "wild oat (Avena fatua); [12]", "value": 95},
      {"measurement": "Plant response rating, Oat, Wild", "setting": "wild oat (Avena fatua); [13]", "value": 95},
      {"measurement": "Plant response rating, Oat, Wild", "setting": "wild oat (Avena fatua); [14]", "value": 95},
      {"measurement": "Plant response rating, Oat, Wild", "setting": "wild oat (Avena fatua); [15]", "value": 95},
      {"measurement": "Plant response rating, Oat, Wild", "setting": "wild oat (Avena fatua); [16]", "value": 0},
      {"measurement": "Plant response rating, Oat, Wild", "setting": "wild oat (Avena fatua); [17]", "value": 70},
      {"measurement": "Plant response rating, Oat, Wild", "setting": "wild oat (Avena fatua); [18]", "value": 80},
      {"measurement": "Plant response rating, Oat, Wild", "setting": "wild oat (Avena fatua); [19]", "value": 85},
      {"measurement": "Plant response rating, Galium", "setting": "[5]; 62 g ai/ha", "value": 0},
      {"measurement": "Plant response rating, Galium", "setting": "[5]; 125 g ai/ha", "value": 80},
      {"measurement": "Plant response rating, Galium", "setting": "[5]; 250 g ai/ha", "value": 80},
      {"measurement": "Plant response rating, Cupgrass, Woolly", "setting": "[6]; [12]", "value": 100},
      {"measurement": "Plant response rating, Cupgrass, Woolly", "setting": "[6]; [13]", "value": 100},
      {"measurement": "Plant response rating, Cupgrass, Woolly", "setting": "[6]; [14]", "value": 100},
      {"measurement": "Plant response rating, Cupgrass, Woolly", "setting": "[6]; [15]", "value": 100},
      {"measurement": "Plant response rating, Cupgrass, Woolly", "setting": "[6]; [16]", "value": 70},
      {"measurement": "Plant response rating, Cupgrass, Woolly", "setting": "[6]; [17]", "value": 70},
      {"measurement": "Plant response rating, Cupgrass, Woolly", "setting": "[6]; [18]", "value": 85},
      {"measurement": "Plant response rating, Cupgrass, Woolly", "setting": "[6]; [19]", "value": 100},
      {"measurement": "Plant response rating, Wheat", "setting": "[7]; [12]", "value": 60},
      {"measurement": "Plant response rating, Wheat", "setting": "[7]; [13]", "value": 80},
      {"measurement": "Plant response rating, Wheat", "setting": "[7]; [14]", "value": 95},
      {"measurement": "Plant response rating, Wheat", "setting": "[7]; [16]", "value": 0},
      {"measurement": "Plant response rating, Wheat", "setting": "[7]; [17]", "value": 65},
      {"measurement": "Plant response rating, Wheat", "setting": "[7]; [18]", "value": 80},
      {"measurement": "Plant response rating, Wheat", "setting": "[7]; [19]", "value": 95},
      {"measurement": "Plant response rating, Bromegrass, Downy", "setting": "[8]; [12]", "value": 0},
      {"measurement": "Plant response rating, Bromegrass, Downy", "setting": "[8]; [13]", "value": 0},
      {"measurement": "Plant response rating, Bromegrass, Downy", "setting": "[8]; [14]", "value": 0},
      {"measurement": "Plant response rating, Bromegrass, Downy", "setting": "[8]; [15]", "value": 0},
      {"measurement": "Plant response rating, Bromegrass, Downy", "setting": "[8]; [16]", "value": 35},
      {"measurement": "Plant response rating, Bromegrass, Downy", "setting": "[8]; [17]", "value": 35},
      {"measurement": "Plant response rating, Bromegrass, Downy", "setting": "[8]; [18]", "value": 60},
      {"measurement": "Plant response rating, Bromegrass, Downy", "setting": "[8]; Preemergence, 250 g ai/ha, scale 0 to 100 (0 no effect, 100 complete control)", "value": 60},
      {"measurement": "Plant response rating, Ducksalad", "setting": "[9]; [20]", "value": 0},
      {"measurement": "Plant response rating, Ducksalad", "setting": "[9]; [21]", "value": 20},
      {"measurement": "Plant response rating, Ducksalad", "setting": "[9]; [22]", "value": 40},
      {"measurement": "Plant response rating, Ducksalad", "setting": "[9]; [23]", "value": 0},
      {"measurement": "Plant response rating, Rice", "setting": "rice (Oryza sativa); [20]", "value": 30},
      {"measurement": "Plant response rating, Rice", "setting": "rice (Oryza sativa); [21]", "value": 45},
      {"measurement": "Plant response rating, Rice", "setting": "rice (Oryza sativa); [22]", "value": 65},
      {"measurement": "Plant response rating, Rice", "setting": "rice (Oryza sativa); [23]", "value": 20},
      {"measurement": "Plant response rating, Sedge, Umbrella", "setting": "[10]; [20]", "value": 80},
      {"measurement": "Plant response rating, Sedge, Umbrella", "setting": "[10]; [21]", "value": 80},
      {"measurement": "Plant response rating, Sedge, Umbrella", "setting": "[10]; [22]", "value": 80},
      {"measurement": "Plant response rating, Sedge, Umbrella", "setting": "[10]; [23]", "value": 70},
      {"measurement": "Plant response rating, Barnyardgrass", "setting": "[11]; [20]", "value": 45},
      {"measurement": "Plant response rating, Barnyardgrass", "setting": "[11]; [21]", "value": 65},
      {"measurement": "Plant response rating, Barnyardgrass", "setting": "[11]; [22]", "value": 85},
      {"measurement": "Plant response rating, Barnyardgrass", "setting": "[11]; [23]", "value": 20}
    ]}
  ]
}
